Test [1] has as its target T1, photosystem II (PS II) (Spinacia oleracea, UniProt P69560).
T1 construct: the chloroplasts were osmotically ruptured and the thylakoid membranes were then obtained by centrifugation; from tissue; host or cells: thylakoid membranes from fresh spinach leaves
In words: Measurement of the PS II activity in thylakoid membranes (DCPIP reduction, Experimental Part 3, Table E1). The format is biochemical. The settings on record: spinach thylakoid membranes. Here is the method:
Cooled fresh spinach leaves were comminuted and homogenized in 50 mM phosphate buffer, pH 6.8. 10 mM KCl, 0.34 M sucrose (sucrose buffer) (blender, 1 g of plant material/ml). The homogenate was subsequently filtered through 4 layers of Miracloth and the chloroplasts were isolated by centrifugation, i.e. 10 min of centrifugation at 4400×g (4° C.). The sediment was suspended in 25 ml of sucrose buffer and re-centrifuged for 10 min at 4400×g (4° C.). The sediment was then suspended in 40 ml of 50 mM phosphate buffer, pH 6.8, 10 mM KCl, without sucrose. In this step, the chloroplasts were osmotically ruptured and the thylakoid membranes were then obtained by centrifugation (10 min, 4400×g, 4° C.). The membrane sediment was finally suspended in about 20 ml of 50 mM phosphate buffer, pH 6.8, 10 mM KCl. Following protein determination and activity determination, the membrane suspension was divided into aliquots and frozen in liquid nitrogen. The aliquots were stored at −80° C. Under these conditions, the photosystem II preparation was storage stable for at least three months. The activity determination of photosystem II (PS II) was then carried out using the following test principle: The electron transfer from PS II to an artificial electron acceptor, 2,6-dichlorophenolindophenol (DCPIP), was measured with exposure to light. The concentration of the blue oxidized form of DCPIP was determined spectrophotometrically at wavelength λ=595 nm. […] The activity determination was carried out in microtiter plates (96 cavities) in a reaction volume of 200 μl. Here, 155 μl of dilute membrane suspension were initially charged in 50 mM of phosphate buffer, pH 6.8, 10 mM KCl. Depending on the activity of the PS II preparation, the dilution was adjusted such that the measurement of the decrease in absorption (λ=595 nm) was linear for at least 10 min. In each case 5 μl solution of the test compounds of a concentration of 100 μM in DMSO were added to the enzyme suspension; controls contained 5 μl DMSO; the final concentration of DMSO in the reaction batch was thus 2.5% (v/v); this concentration had no adverse effect on the enzymatic activity. On each microtiter plate, a known PS II inhibitor, for example metribuzin, was used as standard, which allowed the quality of the PS II test to be assessed. The reaction was started by addition of 40 μl DCPIP solution (600 μM in distilled water); the final concentration of DCPIP was 120 μM. Measurement of absorption was carried out over a period of 10 min at 22° C. and with exposure to light. Using metribuzin as comparative substance, the results for the efficacy of the compounds of the general formula (I) at 100 μM are stated in the table below using the following classification: ++++ (inhibition≥90%), +++ (90%>inhibition≥70%), ++ (70%>inhibition≥50%), + (50%>inhibition≥30%).
Effects of selected compounds of the general formula (I) according to the following table E1: […]

Test [2] deals with Abutilon theophrasti. In words: Herbicidal post-emergence action (Experimental Part 2, C). The format is in vivo. The settings on record: post-emergence (Part 2), rated visually after about 3 weeks. How it is done:
(§1) Seeds of mono- and dicotyledonous weed plants were placed in plastic pots in sandy loam soil (doubly sown with in each case one species of mono- or dicotyledonous weed plants per pot), covered with soil and cultivated in a greenhouse under controlled growth conditions. 2 to 3 weeks after sowing, the test plants were treated at the one-leaf stage. The compounds of the invention, formulated in the form of wettable powders (WP) or as emulsion concentrates (EC), were applied onto the green parts of the plants as aqueous suspension or emulsion with addition of 0.5% additive at a water application rate of 600 liters per hectare (converted). After the test plants had been kept in the greenhouse under optimum growth conditions for about 3 weeks, the activity of the preparations was rated visually in comparison to untreated controls. For example, 100% activity=the plants have died, 0% activity=like control plants. Tables C1 to C8 below show the effects of selected compounds of the general formula (I) according to Tables I.1 to I.116 on various harmful plants and an application rate corresponding to 1280 g/ha or 320 g/ha, which were obtained by the experimental procedure mentioned above.

Test [3] deals with Matricaria inodora. Described as above. The format is in vivo. The settings on record: post-emergence (Part 2), application rate 1280 g/ha, rated visually after about 3 weeks. Here is the method:
as §1

For test [4], the system named is Stellaria media. Described as above. Format: in vivo. Particulars: post-emergence (Part 2), application rate 1280 g/ha, rated visually after about 3 weeks. Here is the method: as §1
The test system of test [5] is Abutilon theophrasti. In words: Herbicidal pre-emergence action (Experimental Part 2, D). Format: in vivo. The settings on record: pre-emergence (Part 2), application rate 1280 g/ha, scored visually after about 3 weeks. The text has this:
(§2) Seeds of mono- and dicotyledonous weed plants were placed in plastic pots in sandy loam soil (doubly sown with in each case one species of mono- or dicotyledonous weed plants per pot) and covered with soil. The compounds of the invention, formulated in the form of wettable powders (WP) or as emulsion concentrates (EC), were then applied onto the surface of the covering soil as aqueous suspension or emulsion with addition of 0.5% additive at a water application rate of 600 liters per hectare (converted). After the treatment, the pots are placed in a greenhouse and kept under good growth conditions for the trial plants. After about 3 weeks, the effect of the preparations was scored visually in comparison with untreated controls as percentages. For example, 100% activity=the plants have died, 0% activity=like control plants. Tables D1 to D8 below show the effects of selected compounds of the general formula (I) according to Tables I.1 to I.116 on various harmful plants and an application rate corresponding to 1280 g/ha or 320 g/ha, which were obtained by the experimental procedure mentioned above.

Test [6] has as its system Amaranthus retroflexus. The description is as above. Format: in vivo. The settings on record: pre-emergence (Part 2), application rate 1280 g/ha, scored visually after about 3 weeks.
Source text: as §2

In test [7] the test system is Matricaria inodora. The test is described as above. Particulars: pre-emergence (Part 2), scored visually after about 3 weeks. The format is in vivo.
Source text: as §2

Test [8] relates to Poa annua. The test is described as above. The format is in vivo. Particulars: pre-emergence (Part 2), scored visually after about 3 weeks.
Source text: as §2

The subject of test [9] is Setaria viridis. The test is described as above. Particulars: pre-emergence (Part 2), application rate 1280 g/ha, scored visually after about 3 weeks. The format is in vivo.
Source text: as §2

The subject of test [10] is Stellaria media. The test is described as above. The format is in vivo. The settings on record: pre-emergence (Part 2), scored visually after about 3 weeks.
Source text: as §2

Test [11] concerns Amaranthus retroflexus. In words: Herbicidal post-emergence action (Experimental Part 2, C). Format: in vivo. Particulars: post-emergence (Part 2), application rate 320 g/ha, rated visually after about 3 weeks. Here is the method:
as §1

Consider `CC1=CC(O)N(c2cc(C)ns2)C1=O` (stereo not shown) [I.2-72], for which, in test [1], the “Effect (inhibition of PS II activity)” value is listed as “++ (70%>inhibition≥50%)”.
Take `CC1=CC(=O)N(c2cc(C(C)(C)C)no2)C1O` (stereo not shown) [I.1-290, 5-Hydroxy-4-methyl-1-(3-tert-butyl-1,2-isoxazol-5-yl)-1,5-dihydro-2H-pyrrol-2-one]: the “Abutilon theophrasti, herbicidal activity” value was found to be 100% in test [2] (application rate 320 g/ha) and 90% in test [5]. Moreover, the “Matricaria inodora, herbicidal activity” value in [3] and in [7] (application rate 320 g/ha) was 100% each time. Moreover, the “Stellaria media, herbicidal activity” value in test [4] and in test [10] (application rate 320 g/ha) was 100% each time. The “Amaranthus retroflexus, herbicidal activity” value (“Amaranthus retroflexus” below) in [6] worked out at 100%. Moreover, the “Poa Annua, herbicidal activity” value in test [8] (application rate 320 g/ha) is 90%. For the same molecule, in test [9], the “Setaria viridis, herbicidal activity” value was determined as 90%. Besides, the “Effect (inhibition of PS II activity)” value in test [1] is “++++ (inhibition≥90%)”.
As for `CC1=CC(=O)N(c2cc(C(C)C)no2)C1O` (stereo not shown) [I.1-289], the “Abutilon theophrasti, herbicidal activity” value in test [2] (application rate 1280 g/ha) and in [5] was 100% each time. The “Amaranthus retroflexus” value in test [11] is reported as 100%; in test [6], 90%. The “Matricaria inodora, herbicidal activity” value in test [3] and in [7] (application rate 1280 g/ha) was 100% each time. In addition, the “Poa Annua, herbicidal activity” value in test [8] (application rate 1280 g/ha) was 100%. Also, the “Setaria viridis, herbicidal activity” value in [9] is listed as 90%. Also, the “Stellaria media, herbicidal activity” value in [10] (application rate 1280 g/ha) came out at 100%.
`CC1=CC(=O)N(c2cc(C)ns2)C1O` (stereo not shown) [I.1-72]: the “Amaranthus retroflexus” value in test [11] was determined as 100%; in test [6], 90%. Besides, the “Matricaria inodora, herbicidal activity” value in test [3] came to 100%. Moreover, in [10] (application rate 1280 g/ha), the “Stellaria media, herbicidal activity” value is recorded as 90%. Also, the “Effect (inhibition of PS II activity)” value in test [1] was “++++ (inhibition≥90%)”.
On to `CC1=CC(=O)N(c2cc(-c3ccccc3)ns2)C1O` (stereo not shown) [I.1-86], for which the “Effect (inhibition of PS II activity)” value in [1] is reported as “++++ (inhibition≥90%)”.
Turning to `CC1=CC(=O)N(c2cc(CC(C)C)no2)C1O` (stereo not shown) [I.1-697], the “Effect (inhibition of PS II activity)” value in [1] is on record as “++++ (inhibition≥90%)”.
With `CSc1nnc(C(C)(C)C)c(=O)n1N` [metribuzin, reference compound], the “Effect (inhibition of PS II activity)” value in test [1] is recorded as “++++ (inhibition≥90%)”.

The values above are taken from patent publication US20200079765A1, “SUBSTITUTED HETEROARYL PYRROLONES AND SALTS THEREOF AND USE THEREOF AS HERBICIDAL ACTIVE SUBSTANCES” (Bayer CropScience Aktiengesellschaft, priority 2016, published 2020).
